Measurements: ChEMBL document CHEMBL4007480, “Synthesis of novel 1,2,4-triazine scaffold as FAK inhibitors with antitumor activity” (Bioorg Med Chem Lett, 2017)

What was measured:
HCT-116 [1] = test: Inhibition of colony formation in human HCT116 cells
U-87 MG [2] = test: Cytotoxicity against human U87MG cells assessed as reduction in cell viability by WST1 assay
U-87 MG [3] = conditions: Homo sapiens; U-87MG ATCC
U-87 MG [4] = test: Inhibition of colony formation in human U87MG cells
HCT-116 [5] = test: Cytotoxicity against human HCT116 cells assessed as reduction in cell viability by WST1 assay

IC50 (HCT-116 [1]) [nM] | IC50 (U-87 MG [4]) [nM] | Structure (SMILES) | IC50 (U-87 MG [2]) [nM] | inhibition (U-87 MG [3]) | IC50 (HCT-116 [5]) [nM]
1100 | 14 | CNC(=O)c1ccccc1Nc1nc(Nc2ccc(CN)cc2)nnc1Cl | 2400 | Dose-dependent effect | 1800
4500 | 500 | CNC(=O)c1ccccc1Nc1nc(Nc2cc(C)c(Cl)cc2OC)nnc1Cl | 9200 | Dose-dependent effect | 5800
60 | 70 | COc1cc(Nc2nnc(Cl)c(Nc3cccc(NS(C)(=O)=O)c3)n2)cc(OC)c1OC | 12500 | Dose-dependent effect | 14800
1700 | 700 | CNC(=O)c1ccccc1Nc1nc(Nc2ccc(N3CCOCC3)cc2)nnc1Cl | 10100 | Dose-dependent effect | 500
270 | 170 | CNC(=O)c1ccccc1Nc1nc(Nc2ccc(N3CCOCC3)cc2OC)ncc1Cl | 1300 | – | 390
1000 | 1500 | CNC(=O)c1ccccc1Nc1nc(Nc2ccc(N3CCOCC3)cc2OC)nnc1Cl | 13300 | Dose-dependent effect | 190
2100 | 1700 | CNC(=O)c1ccccc1Nc1nc(Nc2cc(OC)c(OC)c(OC)c2)nnc1Cl | 17000 | Dose-dependent effect | 14900
